Data: patent US7595313B2, “Nitric oxide donating diuretic compounds, compositions and methods of use” (NicOx, S.A., priority 2005, dated 2009)

Key:
Male Wistar rats = test: Determination of the diuresis (urine volume over 6 hours after oral dosing); format: in vivo, rat
Experimental: Procedures were approved by the Institutional Animal Care and Use Committee of NitroMed, Inc. Male Wistar rats (180-200 g) were purchased from Charles River Laboratories (Kingston, N.Y. or Raleigh, N.C.) and allowed to acclimate in the facility for a period of at least 72 h. Rats were randomly housed 2-3 per cage in a light-controlled room with a 12 hour light/dark cycle and allowed ad libitum access to food and water.
Prior to the experiment, each rat was placed in a metabolic cage and allowed to acclimate for a period of 24-48 hours with food and water ad libitum. During this acclimation period, rats received mash food instead of pellet food to prevent contamination of the urine samples. All rats were fasted for 18 hours prior to experimentation. In addition, water was removed 90 minutes prior to oral dosing with test compound or vehicle.
The test compounds were prepared immediately prior to dosing in 0.5% Methocel (F4M Premium Hydroxypropyl Methylcellulose, lot # PF12012N12; Dow Chemical Company, USA) and homogenized with a glass/Teflon pestle motorized homogenizer. Gently vortexed test compounds were administered intragastrically (p.o.; 30 mg/kg or 3 mg/kg) at a dose volume of 3 ml per rat using an 18 gauge gavage needle. Urine volume (ml) was monitored and urine was collected for subsequent electrolyte analysis over a 6 hours period. […] Data are expressed as mean ±SEM; n=6 or 7.

[1] = p.o. 3 mg/kg in 0.5% Methocel, male Wistar rats, 6 hours, mean ± SEM, n=6 or 7
[2] = p.o. 30 mg/kg in 0.5% Methocel, male Wistar rats, 6 hours, mean ± SEM, n=6 or 7

SMILES	melting point	Urine collected in 6 hours (mL) (3 mg/kg) (Male Wistar rats; rat, in vivo, po)	Urine collected in 6 hours (mL) (30 mg/kg) (Male Wistar rats; [2])	further results
NS(=O)(=O)c1cc2c(cc1Cl)NC(CCCC(=O)NC[C@@H](CO[N+](=O)[O-])O[N+](=O)[O-])=NS2(=O)=O [Example 21b, 4H-1,2,4-Benzothiadiazine-3-butanamide, 7-(aminosulfonyl)-N-[(2S)-2,3-bis(nitrooxy)propyl]-6-chloro-, 1,1-dioxide]	140 °C (dec.)			Urine collected in 6 hours (mL) (30 mg/kg) (Male Wistar rats; rat, in vivo, po): 2.7 ± 0.3 mL
NS(=O)(=O)c1cc2c(cc1Cl)NCN(CCCC(CO[N+](=O)[O-])O[N+](=O)[O-])S2(=O)=O (centres unmarked) [Example 43b, 2H-1,2,4-Benzothiadiazine-7-sulfonamide, 2-[4,5-bis(nitrooxy)pentyl]-6-chloro-3,4-dihydro-, 1,1-dioxide]	49 to 53 °C	3.0 ± 0.6		
NS(=O)(=O)c1cc2c(cc1Cl)NC(CCc1cc(CO[N+](=O)[O-])cc(CO[N+](=O)[O-])c1)NS2(=O)=O (centres unmarked) [Example 80b, 2H-1,2,4-Benzothiadiazine-7-sulfonamide, 3-[2-[3,5-bis[(nitrooxy)methyl]phenyl]ethyl]-6-chloro-3,4-dihydro-, 1,1-dioxide]	101 to 104 °C	3.9 ± 0.5		
NS(=O)(=O)c1cc2c(cc1Cl)N=C(NC(=O)CCCCO[N+](=O)[O-])NS2(=O)=O [Example 4c, Pentanamide, N-[7-(aminosulfonyl)-6-chloro-1,1-dioxido-2H-1,2,4-benzothiadiazin-3-yl]-5-(nitrooxy)-]	222 to 225 °C		3.8 ± 0.7	
NS(=O)(=O)c1cc2c(cc1Cl)NCN(CC(=O)N(CCCO[N+](=O)[O-])CCCO[N+](=O)[O-])S2(=O)=O [Example 72b, 2H-1,2,4-Benzothiadiazine-2-acetamide, 7-(aminosulfonyl)-6-chloro-3,4-dihydro-N,N-bis[3-(nitrooxy)propyl]-, 1,1-dioxide]	157 to 160 °C	1.8 ± 0.2		
NS(=O)(=O)c1cc2c(cc1Cl)N([N+](=O)[O-])CN(CCO[N+](=O)[O-])S2(=O)=O [Example 52, 2H-1,2,4-Benzothiadiazine-7-sulfonamide, 6-chloro-3,4-dihydro-4-nitro-2-[2-(nitrooxy)ethyl]-, 1,1-dioxide]	144 °C (dec.)	5.7 ± 0.8		
NS(=O)(=O)c1cc2c(cc1Cl)NC(c1cc(CO[N+](=O)[O-])cc(CO[N+](=O)[O-])c1)NS2(=O)=O (centres unmarked) [Example 50c, 2H-1,2,4-Benzothiadiazine-7-sulfonamide, 3-[3,5-bis[(nitrooxy)methyl]phenyl]-6-chloro-3,4-dihydro-, 1,1-dioxide]	121 to 124 °C	3.3 ± 0.6		
NS(=O)(=O)c1cc2c(cc1C(F)(F)F)NC(CCC(CO[N+](=O)[O-])O[N+](=O)[O-])NS2(=O)=O (centres unmarked) [Example 7, 2H-1,2,4-benzothiadiazine-7-sulfonamide, 3-[3,4-bis(nitrooxy)butyl]-3,4-dihydro-6-(trifluoromethyl)-, 1,1-dioxide]	157 to 160 °C (dec.)			Urine collected in 6 hours (mL) (30 mg/kg) (Male Wistar rats; rat, in vivo, po): 5.7 ± 0.4 mL
NS(=O)(=O)c1cc2c(cc1Cl)NCN(CC[C@H](CO[N+](=O)[O-])O[N+](=O)[O-])S2(=O)=O [Example 73b, 2H-1,2,4-Benzothiadiazine-7-sulfonamide, 2-[(3R)-3,4-bis(nitrooxy)butyl]-6-chloro-3,4-dihydro-, 1,1-dioxide]	158 to 162 °C	3.8 ± 0.5		
NS(=O)(=O)c1cc2c(cc1Cl)NC(CC(=O)N(CCO[N+](=O)[O-])CCO[N+](=O)[O-])NS2(=O)=O (centres unmarked) [Example 49e, 2H-1,2,4-Benzothiadiazine-3-acetamide, 7-(aminosulfonyl)-6-chloro-3,4-dihydro-N,N-bis[2-(nitrooxy)ethyl]-, 1,1-dioxide]	94 to 97 °C	2.5 ± 0.5		
NS(=O)(=O)c1cc2c(cc1Cl)NC(CCCC(=O)NCCO[N+](=O)[O-])=NS2(=O)=O [Example 14, 4H-1,2,4-Benzothiadiazine-3-butanamide, 7-(aminosulfonyl)-6-chloro-N-[2-(nitrooxy)ethyl]-, 1,1-dioxide]	168 to 170 °C		4.0 ± 0.4	
NS(=O)(=O)c1cc2c(cc1Cl)NCN(CCCCCCO[N+](=O)[O-])S2(=O)=O [Example 58b, 2H-1,2,4-Benzothiadiazine-7-sulfonamide, 6-chloro-3,4-dihydro-2-[6-(nitrooxy)hexyl]-, 1,1-dioxide]	158 to 160 °C			Urine collected in 6 hours (mL) (3 mg/kg) (Male Wistar rats; [1]): 6.3 ± 0.2 mL

Second part, led by results:

melting point	SMILES	Urine collected in 6 hours (mL) (3 mg/kg) (Male Wistar rats; rat, in vivo, po)	Urine collected in 6 hours (mL) (30 mg/kg) (Male Wistar rats; [2])	further results
160 to 162 °C (dec.)	NS(=O)(=O)c1cc2c(cc1Cl)NCN(C/C=C/CO[N+](=O)[O-])S2(=O)=O [Example 67b, 2H-1,2,4-Benzothiadiazine-7-sulfonamide, 6-chloro-3,4-dihydro-2-[(2E)-4-(nitrooxy)-2-butenyl]-, 1,1-dioxide]			Urine collected in 6 hours (mL) (3 mg/kg) (Male Wistar rats; [1]): 6.7 ± 0.6 mL
202 to 211 °C	NS(=O)(=O)c1cc2c(cc1Cl)NC(CCCCO)NS2(=O)=O (centres unmarked) [Example 26, 2H-1,2,4-Benzothiadiazine-7-sulfonamide, 6-chloro-3,4-dihydro-3-(4-hydroxybutyl)-, 1,1-dioxide]		6.0 ± 0.4	
242 to 243 °C (dec.)	Cc1c(C2Nc3cc(Cl)c(S(N)(=O)=O)cc3S(=O)(=O)N2)no[n+]1[O-] (centres unmarked) [Example 9b, 2H-1,2,4-Benzothiadiazine-7-sulfonamide, 6-chloro-3,4-dihydro-3-(4-methyl-5-oxido-1,2,5-oxadiazol-3-yl)-, 1,1-dioxide]		6.7 ± 0.8	
161 °C	NS(=O)(=O)c1cc2c(cc1Cl)NC(CCCCCCO[N+](=O)[O-])NS2(=O)=O (centres unmarked) [Example 47c, 2H-1,2,4-Benzothiadiazine-7-sulfonamide, 6-chloro-3,4-dihydro-3-[6-(nitrooxy)hexyl]-, 1,1-dioxide]			Urine collected in 6 hours (mL) (3 mg/kg) (Male Wistar rats; [1]): 8.3 ± 0.6 mL
170 to 172 °C	NS(=O)(=O)c1cc2c(cc1Cl)NC(CCCCCO[N+](=O)[O-])=NS2(=O)=O [Example 20c, 4H-1,2,4-Benzothiadiazine-7-sulfonamide, 6-chloro-3-[5-(nitrooxy)pentyl]-, 1,1-dioxide]		3.0 ± 0.9	
190 °C	NS(=O)(=O)c1cc2c(cc1Cl)NC(CCCCCO)NS2(=O)=O (centres unmarked) [Example 24c, 2H-1,2,4-Benzothiadiazine-7-sulfonamide, 6-chloro-3,4-dihydro-3-(5-hydroxypentyl)-, 1,1-dioxide]		7.2 ± 0.7	Urine collected in 6 hours (mL) (3 mg/kg) (Male Wistar rats; [1]): 8.6 ± 0.4 mL
178 to 181 °C	NS(=O)(=O)c1cc2c(cc1Cl)NC(CCCO[N+](=O)[O-])NS2(=O)=O (centres unmarked) [Example 8, 2H-1,2,4-Benzothiadiazine-7-sulfonamide, 6-chloro-3,4-dihydro-3-[3-(nitrooxy)propyl]-, 1,1-dioxide]		6.2 ± 0.7	
238 to 240 °C	CC1(C)CC(CC2Nc3cc(Cl)c(S(N)(=O)=O)cc3S(=O)(=O)N2)CC(C)(C)N1O (centres unmarked) [Example 76b, 1-Piperidinyloxy, 4-[[7-(aminosulfonyl)-6-chloro-3,4-dihydro-1,1-dioxido-2H-1,2,4-benzothiadiazin-3-yl]methyl]-2,2,6,6-tetramethyl-]			Urine collected in 6 hours (mL) (3 mg/kg) (Male Wistar rats; p.o. 3 mg/kg in 0.5% Methocel, male Wistar rats, 6 hours, mean ± SEM, n=6 or 7, 3 mg/kg): 2.2 ± 0.4 mL
